Columns and labels:
[1] = target: T1, BTK kinase (Homo sapiens, UniProt Q06187); assay: BTK kinase activity inhibition assay (ADP-Glo); assay type: biochemical; conditions: ATP 50 μM
T1 construct: purchased Invitrogen PV3363
Procedure: The BTK kinase (purchased from Invitrogen, No.: PV3363) was diluted with reaction buffer (40 mM Tris-HCl, pH 7.5; 20 mM MgCl2, 0.1 mg/ml BSA; 1 mM DTT; 2 mM MnCl2) to 2 times of the final concentration (which is 1.1 ng/μL) and added with 5 μL/well to a 96-well plate. The compounds of the present invention were serial diluted with deionized water to four times (i.e., 40 μM, 4 μM, 0.4 μM, 80 nM, 16 nM, 3.2 nM, respectively) of the final concentrations (10 μM, 1 μM, 0.1 μM, 20 nM, 4 nM, 0.8 nM, respectively), and added at 2.5 μL/well to the test wells of the 96-well plate. After incubation at 25° C. for 10 minutes, ATP (50 μM) (purchased from Promega, No.: V9102) and 0.2 μg/μL of Poly E4Y1 (purchased from Sigma, No.: P0275-25MG) were added with 2.5 μL/well and incubated at 25° C. for 120 minutes. After the reaction was completed, 10 μL of the ADP-Glo reagent (ADP-Glo™ kinase assay kit, purchased from Promega, No.: V9102) was added to each well, and reacted at 25° C. for 40 minutes. Then 20 μL of the ADP-Glo kinase detection reagent was added to each well and reacted at 25° C. for 30 minutes. The kinase activity was detected by luminescence using the ADP-Glo kinase assay kit according to the manufacture's instruction, and IC50 values of the compounds of the present invention were calculated.

[2] = tested on: Lewis rats; assay: Adjuvant-induced arthritis (AIA) model in rats; assay type: in vivo; conditions: 30 mg/kg and 100 mg/kg orally once a day for 7 days
Procedure: 100 mg of inactivated Mycobacterium tuberculosis (purchased from BD Difco, No.: 231141) accurately weighed and dissolved in 5 mL of incomplete Freund's adjuvant (IFA) (purchased from Sigma, No.: F5506), and then with 5 mL of physiological saline added, was homogeneously emulsified into 10 mg/mL of complete Freund's adjuvant (CFA). […] Rats were evaluated for the severity of arthritis using an established scoring system ranging from 0 to 4 as follows: 0=no evidence of erythema or swelling; 1=slight erythema or swelling of one of the toe joints; 2=erythema or swelling of more than one toe; 3=swelling of the ankle or wrist joint; 4=swelling of all toes including the ankle joint. All four paws of the rat were scored individually, and the highest score was 16.
The paw volumes of the rats were measured by the drainage method using a plethysmometer (Plethysmometer PV-200, Chengdu Taimeng Science and Technology Co., Ltd.) to determine the volumes below the ankle joints (in mL). The rats were measured for paw volumes every other day from day 10 after primary immunization, i.e. day 1 of the administration. […]

[3] = tested on: p-BTK (pY223) in Ramos cells; assay: p-BTK inhibition assay in Ramos cells (Western blot); assay type: cell-based; conditions: compound 1 hour, anti-human IgM stimulation
Procedure: Ramos cells (purchased from the Beijing Union Medical College) with starvation culture for 1 hour were treated with the compounds of the present invention for 1 hour, and then rinsed with PBS buffer (pH 7.2) to remove the compounds. Then they were resuspended in 100 μL of serum-free culture medium containing 1 μM of anti-human IgM F(ab′)2 (purchased from SBA company, No.: 2022-01) and stimulated on ice for 10 minutes. The cells were rinsed with PBS buffer (pH 7.2) to remove IgM and resuspended in 100 μL of protein lysis buffer (purchased from Sigma, No.: C2978), and then prepared and quantified the protein sample. 100 μg of the protein sample were taken and loaded on polyacrylamide gels for electrophoresis under 200V of voltage. After electrophoresis, protein blots were transferred to a PVDF membrane. […] The protein expression was detected by coloration using ECL substrate (purchased from GE, No.: RPN2109).

[4] = target: T2, JAK3 kinase (Homo sapiens, UniProt P52333); assay: JAK3 kinase activity inhibition assay (ADP-Glo); assay type: biochemical; conditions: ATP 10 μM
T2 construct: purchased SignalChem J03-11G
Procedure: The JAK3 kinase (purchased from SignalChem, No.: J03-11G) was diluted with reaction buffer (40 mM Tris-HCl, pH 7.5; 20 mM MgCl2, 0.1 mg/ml BSA; 1 mM DTT) to 2 times of the final concentration (which is 0.5 ng/μL) and added with 5 μL/well to a 96-well plate. The compounds of the present invention were serial diluted with deionized water to four times (i.e., 40 μM, 4 μM, 0.4 μM, 80 nM, 16 nM, 3.2 nM, respectively) of the final concentrations (10 μM, 1 μM, 0.1 μM, 20 nM, 4 nM, 0.8 nM, respectively), and added with 2.5 μL/well to the test wells of the 96-well plate. After incubation at 25° C. for 10 minutes, 10 μM of ATP (purchased from Promega, No.: V9102) and 0.2 μg/μL of Poly E4Y1 (purchased from Sigma, No.: P0275-25MG) were added at 2.5 μL/well and reacted at 25° C. for 60 minutes. After the reaction was completed, 10 μL of the ADP-Glo reagent (ADP-Glo™ kinase assay kit, purchased from Promega, No.: V9102) was added to each well and reacted at 25° C. for 40 minutes. Then 20 μL of the ADP-Glo kinase detection reagent was added to each well and reacted at 25° C. for 30 minutes. The kinase activity was detected by luminescence using the ADP-Glo kinase assay kit according to the manufacture's instruction, and IC50 values of the compounds of the present invention were calculated.

T1 sequence (Q06187 whole entry): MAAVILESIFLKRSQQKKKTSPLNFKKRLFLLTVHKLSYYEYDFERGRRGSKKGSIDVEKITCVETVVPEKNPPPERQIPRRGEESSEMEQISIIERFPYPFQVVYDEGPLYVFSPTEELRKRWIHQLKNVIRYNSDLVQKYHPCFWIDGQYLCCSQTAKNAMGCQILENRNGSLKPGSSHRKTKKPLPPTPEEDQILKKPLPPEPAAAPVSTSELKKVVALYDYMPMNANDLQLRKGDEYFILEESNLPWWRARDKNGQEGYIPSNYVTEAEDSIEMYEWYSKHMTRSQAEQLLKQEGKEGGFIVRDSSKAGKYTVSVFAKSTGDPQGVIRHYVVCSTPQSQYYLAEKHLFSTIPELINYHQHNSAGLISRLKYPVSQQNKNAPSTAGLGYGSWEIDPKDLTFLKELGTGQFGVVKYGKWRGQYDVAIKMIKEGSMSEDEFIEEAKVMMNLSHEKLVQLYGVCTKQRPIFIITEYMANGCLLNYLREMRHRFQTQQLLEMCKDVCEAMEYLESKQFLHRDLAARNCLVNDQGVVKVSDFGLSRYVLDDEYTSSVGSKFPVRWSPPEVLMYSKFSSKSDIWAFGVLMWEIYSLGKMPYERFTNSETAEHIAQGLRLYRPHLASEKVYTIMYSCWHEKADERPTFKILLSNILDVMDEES
T2 sequence (P52333 781-1124 limits assumed): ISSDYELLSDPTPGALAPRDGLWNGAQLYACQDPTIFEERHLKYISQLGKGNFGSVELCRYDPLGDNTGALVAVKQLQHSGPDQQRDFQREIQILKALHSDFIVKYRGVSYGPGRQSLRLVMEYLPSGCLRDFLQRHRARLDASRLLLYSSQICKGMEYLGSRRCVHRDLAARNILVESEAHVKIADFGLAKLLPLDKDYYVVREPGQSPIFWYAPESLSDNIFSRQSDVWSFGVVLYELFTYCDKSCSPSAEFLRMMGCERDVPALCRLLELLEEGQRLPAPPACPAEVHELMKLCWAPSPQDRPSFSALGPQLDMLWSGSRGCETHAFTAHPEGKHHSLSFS

IC50 [1]: ≤ 50 nM
IC50 [4]: ≤ 10 nM
Structure (SMILES): C=CC(=O)N1CC[C@@H](Nc2nc(Nc3cc(C)ns3)nc3ccsc23)C1 [Example 132, (R)-1-(3-((2-((3-methyl-isothiazol-5-yl)amino)thieno[3,2-d]pyrimidin-4-yl)amino)pyrrolidin-1-yl)prop-2-en-1-one]
therapeutic effect on arthritis (arthritis severity scores) [2]: good therapeutic effect on arthritis in the AIA model at the designed doses
inhibition of expression of p-BTK [3]: significantly inhibit the expressions of p-BTK and p-PLCγ2 in Ramos cells in a dose-dependent manner

— US10273242B2, “Compound inhibiting activities of BTK and/or JAK3 kinases” (BEIJING HANMI PHARMACEUTICAL CO., LTD., priority 2013, dated 2019)
